Measurements taken from article PMC12472621, “Excavating Precursors from Herb Pairs Polygala tenuifolia and Acori tatarinowii: Synthesis and Anticonvulsant Activity Evaluation of 3,4,5-Trimethoxycinnamic Acid (TMCA) Piperazine Amide Derivatives” (Pharmaceuticals, 2025).
Read-outs that look alike come from different tables or passages of the source.

Test system: maximal electroshock (MES) induced seizures
Assay: Maximal electroshock (MES) test
Assay type: in vivo, mice
Settings: Mus musculus, ip, 100 mg/kg i.p., mice
Excerpt: Male Kunming mice (23–28 g) were maintained under controlled conditions with ad libitum access to standard pellet diet and water. Test compounds were formulated immediately prior to administration in normal saline containing 0.5% Tween-80. Our experiment was authorized by the Institutional Animal Care and Use Committee of Shaanxi University of Chinese Medicine (animal ethics certificate number: SUCMDL20210309027).
The MES test carried out following the method of Swinyard. A 60 Hz current (50 mA; 0.25 s duration) was delivered via corneal electrodes using a YSD-4G electro convulsion meter (Zhenghua Instruments, Huaibei, China, SN: ZH0056232). […] Test compounds were suspended in an identical vehicle. Protection was defined as abolition of tonic hindlimb extension.

[1] = 0.5 h, read-out: MES model, protected mice/total mice, 0.5 h (converted)
[2] = 1 h, read-out: MES model, protected mice/total mice, 1 h (converted)
[3] = 2 h, read-out: MES model, protected mice/total mice, 2 h (converted)
[4] = 3 h, read-out: MES model, protected mice/total mice, 3 h (converted)

SMILES | responders at 100 mg/kg [1] | responders at 100 mg/kg [2] | responders at 100 mg/kg [3] | responders at 100 mg/kg [4]
COc1cc(/C=C/C(=O)N2CCN(CCCC(=O)O[C@H]3C[C@H]4CC[C@]3(C)C4(C)C)CC2)cc(OC)c1OC (relative stereo) [A7, rel-(1R,2S,4R)-1,7,7-trimethylbicyclo [2.2.1]heptan-2-yl 4-(4-((E)-3-(3,4,5-trimethoxyphenyl)acryloyl)piperazin-1-yl)butanoate] | 75% | 50% | 25% | 0%
COc1cc(/C=C/C(=O)N2CCN(CCCC(=O)O)CC2)cc(OC)c1OC [A1] | 25% | 25% | 0% | 0%
C=CCc1ccc(OC(=O)CCCN2CCN(C(=O)/C=C/c3cc(OC)c(OC)c(OC)c3)CC2)c(OC)c1 [A2, 4-allyl-2-methoxyphenyl (E)-4-(4-(3-(3,4,5-trimethoxyphenyl)acryloyl)piperazin-1-yl)butanoate] | 50% | 50% | 25% | 0%
C=CCc1ccccc1OC(=O)CCCN1CCN(C(=O)/C=C/c2cc(OC)c(OC)c(OC)c2)CC1 [A4, 2-allylphenyl (E)-4-(4-(3-(3,4,5-trimethoxyphenyl)acryloyl)piperazin-1-yl)butanoate] | 50% | 50% | 25% | 0%
COc1cc(OC)c(OC)cc1/C=C/COC(=O)CCCN1CCN(C(=O)/C=C/c2cc(OC)c(OC)c(OC)c2)CC1 [A5, (E)-3-(2,4,5-trimethoxyphenyl)allyl 4-(4-((E)-3-(3,4,5-trimethoxyphenyl)acryloyl)piperazin-1-yl)butanoate] | 75% | 75% | 50% | 0%
COc1cc(/C=C/C(=O)N2CCN(CCCC(=O)OCC=Cc3ccccc3)CC2)cc(OC)c1OC [A6, cinnamyl 4-(4-((E)-3-(3,4,5-trimethoxyphenyl)acryloyl)piperazin-1-yl)butanoate] | 50% | 50% | 25% | 0%
COc1cc(/C=C/C(=O)N2CCN(CCCC(=O)N3CCN(C(c4ccccc4)c4ccccc4)CC3)CC2)cc(OC)c1OC [A8, (E)-1-(4-benzhydrylpiperazin-1-yl)-4-(4-(3-(3,4,5-trimethoxyphenyl)acryloyl)piperazin-1-yl)butan-1-one] | 75% | 50% | 25% | 0%
COc1cc(/C=C/C(=O)N2CCN(CCCC(=O)N3CCN(c4nsc5ccccc45)CC3)CC2)cc(OC)c1OC [A10, (E)-1-(4-(benzo[d]isothiazol-3-yl)piperazin-1-yl)-4-(4-(3-(3,4,5-trimethoxyphenyl)acryloyl)piperazin-1-yl)butan-1-one] | 75% | 25% | 25% | 0%
COc1cc(/C=C/C(=O)N2CCN(CCCC(=O)N3CCN(c4ccccc4)CC3)CC2)cc(OC)c1OC [A11, (E)-1-(4-phenylpiperazin-1-yl)-4-(4-(3-(3,4,5-trimethoxyphenyl)acryloyl)piperazin-1-yl)butan-1-one] | 25% | 25% | 25% | 0%
COc1cc(/C=C/C(=O)N2CCN(CCCC(=O)N3CCN(c4cccc(Cl)c4)CC3)CC2)cc(OC)c1OC [A13, (E)-1-(4-(3-chlorophenyl)piperazin-1-yl)-4-(4-(3-(3,4,5-trimethoxyphenyl)acryloyl)piperazin-1-yl)butan-1-one] | 25% | 25% | 0% | 0%
COc1ccccc1N1CCN(C(=O)CCCN2CCN(C(=O)/C=C/c3cc(OC)c(OC)c(OC)c3)CC2)CC1 [A15, (E)-1-(4-(2-methoxyphenyl)piperazin-1-yl)-4-(4-(3-(3,4,5-trimethoxyphenyl)acryloyl)piperazin-1-yl)butan-1-one] | 75% | 75% | 25% | 0%
COc1cc(/C=C/C(=O)N2CCN(CCCC(=O)N3CCN(c4ncccn4)CC3)CC2)cc(OC)c1OC [A16, (E)-1-(4-(pyrimidin-2-yl)piperazin-1-yl)-4-(4-(3-(3,4,5-trimethoxyphenyl)acryloyl)piperazin-1-yl)butan-1-one] | 75% | 75% | 50% | 0%
COc1cc(/C=C/C(=O)N2CCN(CCCC(=O)N3CCC(c4noc5cc(F)ccc45)CC3)CC2)cc(OC)c1OC [A17, (E)-1-(4-(6-fluorobenzo[d]isoxazol-3-yl)piperidin-1-yl)-4-(4-(3-(3,4,5-trimethoxyphenyl)acryloyl)piperazin-1-yl)butan-1-one] | 50% | 50% | 25% | 0%
COc1cc(/C=C/C(=O)N2CCN(C(=O)CCC(=O)O)CC2)cc(OC)c1OC [B1] | 25% | 25% | 0% | 0%
C=CCc1ccc(OC(=O)CCC(=O)N2CCN(C(=O)/C=C/c3cc(OC)c(OC)c(OC)c3)CC2)c(OC)c1 [B2, 4-allyl-2-methoxyphenyl (E)-4-oxo-4-(4-(3-(3,4,5-trimethoxyphenyl)acryloyl)piperazin-1-yl)butanoate] | 75% | 75% | 25% | 0%
C/C=C/c1ccc(OC(=O)CCC(=O)N2CCN(C(=O)/C=C/c3cc(OC)c(OC)c(OC)c3)CC2)c(OC)c1 [B3, 2-methoxy-4-((E)-prop-1-en-1-yl)phenyl 4-oxo-4-(4-((E)-3-(3,4,5-trimethoxyphenyl)acryloyl)piperazin-1-yl)butanoate] | 75% | 75% | 25% | 0%
C=CCc1ccccc1OC(=O)CCC(=O)N1CCN(C(=O)/C=C/c2cc(OC)c(OC)c(OC)c2)CC1 [B4, 2-allylphenyl (E)-4-oxo-4-(4-(3-(3,4,5-trimethoxyphenyl)acryloyl)piperazin-1-yl)butanoate] | 75% | 50% | 50% | 0%
COc1cc(/C=C/C(=O)N2CCN(C(=O)CCC(=O)O[C@H]3C[C@H]4CC[C@]3(C)C4(C)C)CC2)cc(OC)c1OC [B7, (1R,2S,4R)-1,7,7-trimethylbicyclo [2.2.1]heptan-2-yl 4-oxo-4-(4-((E)-3-(3,4,5-trimethoxyphenyl)acryloyl)piperazin-1-yl)butanoate] | 75% | 50% | 25% | 0%
COc1cc(/C=C/C(=O)N2CCN(C(=O)CCC(=O)N3CCN(C(c4ccccc4)c4ccccc4)CC3)CC2)cc(OC)c1OC [B8, (E)-1-(4-benzhydrylpiperazin-1-yl)-4-(4-(3-(3,4,5-trimethoxyphenyl)acryloyl)piperazin-1-yl)butane-1,4-dione] | 75% | 75% | 25% | 0%
COc1cc(/C=C/C(=O)N2CCN(C(=O)CCC(=O)N3CCN(c4nsc5ccccc45)CC3)CC2)cc(OC)c1OC [B10, (E)-1-(4-(benzo[d]isothiazol-3-yl)piperazin-1-yl)-4-(4-(3-(3,4,5-trimethoxyphenyl)acryloyl)piperazin-1-yl)butane-1,4-dione] | 75% | 75% | 25% | 0%
COc1cc(/C=C/C(=O)N2CCN(C(=O)CCC(=O)N3CCN(c4ccccc4)CC3)CC2)cc(OC)c1OC [B11, (E)-1-(4-phenylpiperazin-1-yl)-4-(4-(3-(3,4,5-trimethoxyphenyl)acryloyl)piperazin-1-yl)butane-1,4-dione] | 50% | 50% | 25% | 0%
COc1cc(/C=C/C(=O)N2CCN(C(=O)CCC(=O)N3CCN(c4cccc(Cl)c4)CC3)CC2)cc(OC)c1OC [B13, (E)-1-(4-(3-chlorophenyl)piperazin-1-yl)-4-(4-(3-(3,4,5-trimethoxyphenyl)acryloyl)piperazin-1-yl)butane-1,4-dione] | 50% | 25% | 0% | 0%
COc1cc(/C=C/C(=O)N2CCN(C(=O)CCC(=O)N3CCN(c4ccc(C(F)(F)F)cc4)CC3)CC2)cc(OC)c1OC [B14, (E)-1-(4-(4-(trifluoromethyl)phenyl)piperazin-1-yl)-4-(4-(3-(3,4,5-trimethoxyphenyl)acryloyl)piperazin-1-yl)butane-1,4-dione] | 75% | 75% | 50% | 0%
COc1ccccc1N1CCN(C(=O)CCC(=O)N2CCN(C(=O)/C=C/c3cc(OC)c(OC)c(OC)c3)CC2)CC1 [B15, (E)-1-(4-(2-methoxyphenyl)piperazin-1-yl)-4-(4-(3-(3,4,5-trimethoxyphenyl)acryloyl)piperazin-1-yl)butane-1,4-dione] | 75% | 75% | 25% | 0%
